Among the test systems are HCT-15 colon; UO-31 renal; SK-MEL-5 melanoma; NCI-H522 lung; LOX IMVI melanoma; IGROV1 ovarian; SF-268 CNS; HL-60(TB) leukemia; KM12 colon; MALME-3M melanoma; K-562 leukemia; OVCAR-5 ovarian.
What all share (assay): NCI anticancer screen, dose series, 48 h

Where “and” joins values, the source holds several entries; their conditions need not be identical. Identical values can stand only once.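 Compound exposure: 48 hours, 5 concentrations, 96-well plates. GI50: concentration for 50% inhibition of growth. TGI: total growth inhibition.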

In the case of `CC1(C)Cc2c(C#N)c(N)c3c(c2CO1)C(=O)OC3=O`, the TGI with HCT-15 colon, with UO-31 renal, in the assay on SK-MEL-5 melanoma, with NCI-H522 lung, with LOX IMVI melanoma and with IGROV1 ovarian was above 100 µM each time. For the same compound, the TGI in the assay on SF-268 CNS, in the assay with HL-60(TB) leukemia, in the assay on KM12 colon, in the assay on MALME-3M melanoma, with K-562 leukemia and in the assay with OVCAR-5 ovarian was above 100 µM throughout.
Consider `O=C(N/N=C/c1cc(Cl)cc(Cl)c1[O-])c1ccccc1O.O=C(N/N=C/c1cc(Cl)cc(Cl)c1[O-])c1ccccc1O.[Zn+2]`, for which the TGI stood at 15.6 µM in the assay on HCT-15 colon; 10.6 µM in the assay on UO-31 renal; 2.94 µM in the assay on SK-MEL-5 melanoma; 0.764 µM with NCI-H522 lung; 14.6 µM in the assay with LOX IMVI melanoma; 6.82 µM in the assay on IGROV1 ovarian. The TGI in the assay with SF-268 CNS came to 17.7 µM; with HL-60(TB) leukemia it was 0.715 µM; in the assay with KM12 colon, 17.9 µM; in the assay with MALME-3M melanoma it was 8.56 µM; in the assay on K-562 leukemia, 33.4 µM; in the assay with OVCAR-5 ovarian it was 14.6 µM. For the same compound, the GI50 in the assay on KM12 colon is 956 nM; in the assay with MALME-3M melanoma, 1370 nM.
As to `S=C1CC(c2ccccc2)Sc2ccccc2N1` (stereo unspecified), the TGI in the assay with HCT-15 colon, in the assay with UO-31 renal, in the assay with SK-MEL-5 melanoma, in the assay with NCI-H522 lung, in the assay on LOX IMVI melanoma and in the assay on IGROV1 ovarian was above 100 µM in each case. Further, the TGI in the assay with SF-268 CNS, in the assay on HL-60(TB) leukemia, in the assay on KM12 colon, in the assay with MALME-3M melanoma, in the assay with K-562 leukemia and in the assay with OVCAR-5 ovarian was above 100 µM throughout.
As to `CC(=O)OC/C=C\Cn1nc(Br)c(=O)[nH]c1=O`, the TGI with HCT-15 colon was found to be 27.2 µM; in the assay on UO-31 renal it was 31.2 µM; in the assay with SK-MEL-5 melanoma, 30.9 µM; with NCI-H522 lung, 16.7 µM; in the assay with LOX IMVI melanoma, 20.1 µM; with IGROV1 ovarian, 29.4 µM. Moreover, the TGI with SF-268 CNS was determined as 31.5 µM; with HL-60(TB) leukemia, 17.6 µM; with KM12 colon, 30.1 µM; in the assay on MALME-3M melanoma, 31.1 µM; in the assay with K-562 leukemia, 26.5 µM; in the assay with OVCAR-5 ovarian, 31.8 µM.
`CC(=O)NC(c1nc2cc(C)c(C)cc2[nH]1)c1nc2cc(C)c(C)cc2[nH]1`: the TGI came out at 60 µM in the assay on HCT-15 colon; 53.2 µM with UO-31 renal; 32 µM in the assay with SK-MEL-5 melanoma; 18 µM in the assay with NCI-H522 lung; 59.1 µM with LOX IMVI melanoma; 58.9 µM in the assay with IGROV1 ovarian. Besides, the TGI was above 100 µM with SF-268 CNS; above 100 µM in the assay with HL-60(TB) leukemia; 34.2 µM in the assay on KM12 colon; 83.7 µM in the assay with MALME-3M melanoma; above 100 µM in the assay with K-562 leukemia; above 100 µM with OVCAR-5 ovarian.
In the case of `C/C=C/C1=CC(=O)C(O)C1O` (stereo unspecified), the TGI was 97.2 µM with HCT-15 colon; 106 µM with UO-31 renal; 79.8 µM in the assay on SK-MEL-5 melanoma; 15.5 µM with NCI-H522 lung; 83 µM in the assay with LOX IMVI melanoma; 141 µM in the assay on IGROV1 ovarian. Moreover, the TGI with SF-268 CNS stood at 91.2 µM; in the assay on HL-60(TB) leukemia, 57.5 µM; with KM12 colon, 39 µM; in the assay on MALME-3M melanoma, 87.4 µM; in the assay with K-562 leukemia it was 179 µM; in the assay on OVCAR-5 ovarian, 130 µM.
`CC1CCC2(C(=O)O)CCC3(C)C(=CCC4C5(C)CCC(O)C(C)(C)C5CCC43C)C2C1C` (stereo unspecified): the GI50 in the assay with HCT-15 colon was 5.53 µM and 13.3 µM; with SK-MEL-5 melanoma, 26.4 µM and 11.3 µM; in the assay on NCI-H522 lung, 6.98 µM and 14.4 µM; in the assay with SF-268 CNS, 1.29 µM and 10.7 µM. Further, the TGI in the assay on HCT-15 colon is 15.4 µM and 26.6 µM; in the assay on UO-31 renal it was 16.6 µM and 14.5 µM; with SK-MEL-5 melanoma, 50.8 µM and 23.8 µM; in the assay with NCI-H522 lung, 17.8 µM and 28.9 µM; in the assay with LOX IMVI melanoma it was 17.2 µM and > 100 µM; in the assay with IGROV1 ovarian it was 26.9 µM and 33.2 µM. The TGI in the assay on SF-268 CNS is 17.7 µM and 24.6 µM; in the assay with HL-60(TB) leukemia, 19 µM and 6.49 µM; in the assay with KM12 colon it was 21 µM and 20.9 µM; in the assay on MALME-3M melanoma, 25.6 µM and 28.9 µM; in the assay with K-562 leukemia, 15.6 µM; in the assay on OVCAR-5 ovarian, 19.6 µM and 23.2 µM.
Turning to `COc1cccc(/C=N/[N-]C(N)=O)c1[O-].[Ni+2].[OH3+].c1ccc(-c2ccccn2)nc1`, the TGI in the assay on HCT-15 colon, in the assay with UO-31 renal, in the assay on SK-MEL-5 melanoma, in the assay on NCI-H522 lung, in the assay on LOX IMVI melanoma and with IGROV1 ovarian was above 100 µM throughout. The TGI with SF-268 CNS, in the assay on HL-60(TB) leukemia, in the assay with KM12 colon, in the assay with MALME-3M melanoma, in the assay on K-562 leukemia and in the assay with OVCAR-5 ovarian was above 100 µM in each case. In the assay with HL-60(TB) leukemia, the GI50 is 66.9 µM.
`Cc1[nH]nc(N)c1C(N)=O`: the TGI in the assay with HCT-15 colon, in the assay on UO-31 renal, in the assay with SK-MEL-5 melanoma, in the assay with NCI-H522 lung, in the assay on LOX IMVI melanoma and in the assay with IGROV1 ovarian was above 100 µM throughout. Further, the TGI in the assay with SF-268 CNS, in the assay on HL-60(TB) leukemia, in the assay on KM12 colon, in the assay with MALME-3M melanoma, with K-562 leukemia and in the assay with OVCAR-5 ovarian was above 100 µM each time.
Regarding `CNC(=O)SCC(N)C(=O)O` (stereo unspecified), the TGI with HCT-15 colon is above 100 µM; in the assay on UO-31 renal, above 100 µM; in the assay with SK-MEL-5 melanoma, above 100 µM; with NCI-H522 lung it was above 100 µM; in the assay with LOX IMVI melanoma it was above 89.3 µM; with IGROV1 ovarian, above 100 µM. Moreover, the TGI with SF-268 CNS, in the assay on HL-60(TB) leukemia, in the assay on KM12 colon, with MALME-3M melanoma, with K-562 leukemia and with OVCAR-5 ovarian was above 100 µM throughout.
In the case of `CCOC(=O)c1c(Cl)nc2ccccc2c1N=[N+]=[N-]`, the TGI was 34.6 µM with HCT-15 colon; 36.5 µM in the assay with UO-31 renal; above 100 µM in the assay on SK-MEL-5 melanoma; 31.4 µM in the assay on NCI-H522 lung; 39.3 µM in the assay on LOX IMVI melanoma; 46.9 µM in the assay on IGROV1 ovarian. In addition, the TGI with SF-268 CNS was 30.5 µM; in the assay with HL-60(TB) leukemia, above 100 µM; in the assay on KM12 colon, 31.5 µM; in the assay with MALME-3M melanoma, above 100 µM; in the assay on K-562 leukemia, above 100 µM; in the assay with OVCAR-5 ovarian, 41.1 µM.
With `OC1CCOc2ccccc21` (stereo unspecified), the TGI with HCT-15 colon, with UO-31 renal, in the assay on SK-MEL-5 melanoma, with NCI-H522 lung, with LOX IMVI melanoma and in the assay on IGROV1 ovarian was above 100 µM throughout. For the same compound, the TGI in the assay with SF-268 CNS, with HL-60(TB) leukemia, in the assay on KM12 colon, in the assay with MALME-3M melanoma, with K-562 leukemia and in the assay with OVCAR-5 ovarian was above 100 µM throughout.

Values taken from PubChem BioAssay (NCI).
